# Measured values: patent publication US20240368168A1, “SARM1 ENZYME ACTIVITY INHIBITOR AND APPLICATION THEREOF” (ARTIVILA BIOPHARMA, priority 2021, published 2024)
# Counter-ions that a name gives are not always drawn.
# Target: T1, dN-SARM1 protein (Homo sapiens, UniProt Q6SZW1)
# T1 construct: the N-terminal mitochondrial localization signal peptide of SARM1 was removed
# T1 sequence (Q6SZW1 28-724): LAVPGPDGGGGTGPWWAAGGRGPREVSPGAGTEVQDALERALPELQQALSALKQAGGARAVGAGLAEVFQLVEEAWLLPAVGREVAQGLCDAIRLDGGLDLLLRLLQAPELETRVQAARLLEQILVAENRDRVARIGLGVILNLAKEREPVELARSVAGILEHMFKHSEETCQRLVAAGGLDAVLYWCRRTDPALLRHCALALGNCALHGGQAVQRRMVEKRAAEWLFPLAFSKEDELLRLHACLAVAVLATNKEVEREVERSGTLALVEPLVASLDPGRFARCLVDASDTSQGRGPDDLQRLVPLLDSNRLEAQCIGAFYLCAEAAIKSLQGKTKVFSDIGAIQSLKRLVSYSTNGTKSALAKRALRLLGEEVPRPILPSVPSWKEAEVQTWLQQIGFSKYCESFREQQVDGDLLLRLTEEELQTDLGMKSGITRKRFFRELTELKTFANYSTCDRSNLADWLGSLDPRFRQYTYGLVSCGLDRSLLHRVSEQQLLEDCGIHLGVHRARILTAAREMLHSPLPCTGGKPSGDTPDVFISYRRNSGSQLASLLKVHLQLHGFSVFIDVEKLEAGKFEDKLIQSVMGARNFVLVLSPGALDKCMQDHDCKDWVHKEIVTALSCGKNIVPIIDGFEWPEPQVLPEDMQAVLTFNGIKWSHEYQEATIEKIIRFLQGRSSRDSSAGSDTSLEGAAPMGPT
# Test: In vitro biochemical assay for inhibiting SARM1 enzymatic activity (IC50), PC6 fluorescence method
# Settings: 50 μM NAD, 50 μM PC6, 50 μM NMN activator
# Procedure: 200 μM compound was first added to a solution of 0.05 μg/ml dN-SARM1 in 50 mM Tris-HCl (pH 7.5). Half of the mixture was added to an equal volume of a solution of 0.05 μg/ml dN-SARM1 in 50 mM Tris-HCl (pH 7.5) and mixed. The drug was diluted 6 times in this manner, with the final concentrations being 200, 100, 50, 25, 12.5, 6.25, 3.125 μM, or 200, 50, 12.5, 3.125, 0.78, 0.195, 0.049 μM, respectively. The protein without inhibitors added, being used as control group, was incubated at room temperature for 10 minutes.
# 50 μM NAD, 50 μM PC6 as substrate and 50 μM NMN as activator were added to the dN-SARM1 protein incubated with the inhibitor and reacted for 30 minutes at room temperature. The concentration of each component was the final concentration in the reaction system.
# During the reaction, PC6 fluorescence spectrum dynamics were detected by a microplate reader, wherein the excitation wavelength and emission wavelength for detection were 390 nm and 520 nm, respectively. Finally, the reaction rate was used to express the activity of the protein, and the half inhibitory concentration was calculated. The higher the reaction rate, the stronger the protein activity, and the lower the inhibitory efficiency of the compound.
# The dose curve of compounds inhibiting SARM1 enzymatic activity was determined using the above method.
row,Structure (SMILES),IC50 [nM]
1,CC(C)(C)OC(=O)N(CCCc1ccccc1)c1ccc2ncc(-c3cccc(NC(=O)C4CCOCC4)c3)n2c1 [Compound 217],1000 to 10000
2,CN(C(=O)OC(C)(C)C)c1ccc2ncc(C3=CCCCC3)n2c1 [Compound 83],1000 to 10000
3,CC(=O)N(C)c1ccc2ncc(-c3ccccc3)n2c1 [Compound 42],< 1000
4,CN(C(=O)OC(C)(C)C)c1ccc2ncc(-c3ccccn3)n2c1 [Compound 18],1000 to 10000
5,CNc1ccc2ncc(-c3ccccn3)n2c1 [Compound 76],1000 to 10000
6,"c1cc(-c2cnc3ccc(-n4cccn4)cn23)c2cc[nH]c2c1 [Compound 202, 3-(1H-indol-4-yl)-6-(1H-pyrazol-1-yl)imidazo[1,2-a]pyridine]",1000 to 10000
7,"CNc1ccc2ncc(-c3cccc(NC(=O)COCCOCCOCC(=O)N[C@H](C(=O)N4C[C@H](O)C[C@H]4C(=O)NCc4ccc(-c5scnc5C)cc4)C(C)(C)C)c3)n2c1 [Compound 120, (2S,4R)-1-((S)-2-(tert-butyl)-14-((3-(6-(methylamino)imidazo[1,2-a]pyridin-3-yl)phenyl)amino)-4,14-dioxo-6,9,12-trioxa-3-azatetradecanoyl)-4-hydroxy-N-(4-(4-methylthiazol-5-yl)benzyl)pyrrolidin-2-carboxamide hydrochloride]",< 1000
8,CNc1ccc2ncc(-c3cccc(-n4cccn4)c3)n2c1 [Compound 179],< 1000
9,CN(C(=O)OC(C)(C)C)c1ccc2ncc(-c3cccc4c3ccn4C)n2c1 [Compound 285],1000 to 10000
10,"CNc1ccc2ncc(-c3cccc4c(I)n[nH]c34)n2c1 [Compound 210, 3-(3-iodo-1H-indazol-7-yl)-N-methylimidazol[1,2-a]pyridin-6-amine hydrochloride]",1000 to 10000
11,"CC(=O)N(C)c1ccc2ncc(-c3ccccc3Cl)n2c1 [Compound 92, N-(3-(2-chlorophenyl)imidazo[1,2-a]pyridin-6-yl)-N-methylacetamide]",1000 to 10000
12,CNc1ccc2ncc(-c3cccc4c3CC(=O)N4C)n2c1 [Compound 296],1000 to 10000
13,O=C(COCCOCc1ccccc1)Nc1cccc(-c2cnc3ccc(NCCCc4ccccc4)cn23)c1 [Compound 218],1000 to 10000
14,CNc1ccc2ncc(-c3ccnc4c3ccn4C)n2c1 [Compound 294],1000 to 10000
15,CNc1ccc2ncc(C3CCCc4ncccc43)n2c1 (centres unmarked) [Compound 312],1000 to 10000
16,CNc1ccc2ncc(-c3cccc(N)n3)n2c1 [Compound 180],1000 to 10000
17,CNc1ccc2ncc(-c3cccc(C(N)=O)c3)n2c1 [Compound 64],1000 to 10000
18,CN(C(=O)OC(C)(C)C)c1ccc2ncc(-c3ccnc4c3ccn4C)n2c1 [Compound 293],< 1000
19,CN(C)c1ccc2ncc(-c3cccc4c3CNC4=O)n2c1 [Compound 223],< 1000
20,CN(C(=O)OC(C)(C)C)c1ccc2ncc(-c3ccc4cc[nH]c4n3)n2c1 [Compound 297],1000 to 10000
21,CNC(=O)c1ccccc1-c1cnc2ccc(N(C)C(=O)OC(C)(C)C)cn12 [Compound 174],< 1000
22,CN1Cc2c(cccc2-c2cnc3ccc(N(C)C(=O)OC(C)(C)C)cn23)C1=O [Compound 286],1000 to 10000
23,"CN(c1ccc2ncc(-c3ccccc3)n2c1)S(C)(=O)=O [Compound 91, N-methyl-N-(3-phenylimidazo[1,2-a]pyridin-6-yl)methanesulfonamide]",1000 to 10000
24,COc1ccc2ncc(-c3cccc4c3CNC4=O)n2c1 [Compound 235],1000 to 10000
25,"Cc1ncsc1-c1ccc(CNC(=O)[C@@H]2C[C@@H](O)CN2C(=O)[C@@H](NC(=O)COCCOCC(=O)N(C)c2ccc3ncc(-c4ccccc4Cl)n3c2)C(C)(C)C)cc1 [Compound 117, (2S,4R)-1-((S)-12-(tert-butyl)-2-(3-(2-chlorophenyl)imidazo[1,2-a]pyridin-6-yl)-3,10-dioxo-5,8-dioxa-2,11-diazahexadecane-13-acyl)-4-hydroxy-N-(4-(4-methylthiazol-5-yl)benzyl)pyrrolidin-2-carboxamide]",1000 to 10000
26,CNc1ccc2ncc(-c3ccc(NC(=O)C4CCOCC4)cn3)n2c1 [Compound 193],1000 to 10000
